Data taken from PubChem BioAssay (NCI).
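Where inhibition never reached the appropriate level, the endpoint shown equals the highest concentration tested. Otherwise, values were interpolated linearly from a five-concentration, 48-hour dose response in 96-well plates. At the TGI there is no net growth.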

Experiments:
Experiment in all cases: NCI-60 cell line screen, 48 h
CAKI-1 renal = system: CAKI-1 renal
COLO 205 colon = system: COLO 205 colon
IGROV1 ovarian = system: IGROV1 ovarian
KM12 colon = system: KM12 colon
M14 melanoma = system: M14 melanoma
OVCAR-3 ovarian = system: OVCAR-3 ovarian
SK-OV-3 ovarian = system: SK-OV-3 ovarian
A498 renal = system: A498 renal
K-562 leukemia = system: K-562 leukemia
LOX IMVI melanoma = system: LOX IMVI melanoma
HOP-92 NSCLC = system: HOP-92 NSCLC
MCF7 breast = system: MCF7 breast

| SMILES | TGI (CAKI-1 renal) [µM] | TGI (COLO 205 colon) [µM] | TGI (IGROV1 ovarian) [µM] | TGI (KM12 colon) [µM] | TGI (M14 melanoma) [µM] | TGI (OVCAR-3 ovarian) [µM] | TGI (SK-OV-3 ovarian) [µM] | TGI (A498 renal) [µM] | TGI (K-562 leukemia) [µM] | TGI (LOX IMVI melanoma) [µM] | TGI (HOP-92 NSCLC) [µM] | TGI (MCF7 breast) [µM] |
| --- | --- | --- | --- | --- | --- | --- | --- | --- | --- | --- | --- | --- |
| CS(=O)(=O)c1nc(-c2cc3c(c(S(C)(=O)=O)n2)CCCC3)cc2c1CCCCC2 | > 100 | > 100 | 54.3 | > 100 | > 100 | > 100 | > 100 |  |  |  |  |  |
| COc1ccc(N=NC(C(=O)c2ccccc2)C(=O)c2ccccc2)cc1 | > 100 | > 100 | > 100 | > 100 | 33.4 | > 100 | 96 | > 100 | > 100 | 47 |  |  |
| CN(C(=O)C12C3C4C5C3C1(C(=O)C13C6C7C8C6C1C8C73)C5C42)C(C)(C)C (stereo unspecified) | > 50 | > 50 | > 50 | > 50 | > 50 | > 50 | > 50 | > 50 | > 47.3 | > 29.7 | > 50 |  |
| C/C=C(/I)CBr | 2.85 | 28.2 | 33.7 |  | 28.7 |  | 64.7 |  | > 100 | 36.2 | 29.2 |  |
| N#CN/C(N)=N/C/N=C(\N)NC#N | > 100 | > 100 | > 100 | > 100 | > 100 | > 100 | > 100 | > 100 | > 100 |  | > 100 |  |
| OC1(c2ccc(-c3ccccc3)cc2)c2ccccc2C2=NCCN21 (stereo unspecified) | > 100 | 48.3 |  | 54.4 |  | 63.6 | > 100 | > 100 | > 100 | > 100 | > 100 |  |
| COc1ccc(-n2c(N)c(C#N)[nH]c2=O)cc1 |  | > 10 | > 10 | > 10 | > 10 | > 10 | > 10 | > 10 | > 10 | 3.98 | > 10 |  |
| CCOC(=O)c1nnsc1N/N=C\c1ccc([N+](=O)[O-])cc1 |  | > 100 | > 100 | > 100 | > 100 | > 100 | > 100 |  | > 100 |  |  | > 100 |
| CCC1(N=[N+]=[N-])C(=O)c2ccccc2N(C)C1=O (stereo unspecified) | > 100 | > 100 | > 100 | > 100 | > 100 | > 100 | > 100 | > 100 | > 100 | > 100 | > 100 |  |
| O=S(=O)(O)c1cc(N=Nc2c(O)ccc3ccccc23)ccc1/C=C/c1ccc(N=Nc2c(O)ccc3ccccc23)cc1S(=O)(=O)O | > 100 | > 100 | > 100 | > 100 | > 100 | > 100 | > 100 |  | > 100 |  | > 100 |  |
| O=c1cc(CO)oc2c3c(cc(O)c12)OCC(COC1OC(CO)C(O)C(O)C1O)=CC3 (stereo unspecified) | > 100 | > 100 | > 100 | > 100 | > 100 | > 100 | > 100 | > 100 | > 100 | > 100 | > 100 |  |
| COc1ccc(C(c2c(O)c3ccccc3n(-c3ccccc3)c2=O)c2c(O)c3ccccc3n(-c3ccccc3)c2=O)cc1 | > 100 | > 100 |  | > 100 |  | > 100 |  |  | > 100 | > 100 | > 100 |  |
| NC1=C(NC(=O)Cc2ccccc2F)C(=O)c2ccccc2C1=O | > 100 | > 100 | > 100 | > 100 | > 100 | 66.9 |  |  | > 100 |  | 98.1 |  |
| CCOc1ccc2[nH]c3c(C)c4ccncc4c(C)c3c2c1 | 3.06 | 3.04 | 2.42 | 2.22 | 2.9 | 17.7 | 16.4 | 3.2 | > 100 | 2.49 | 3.07 |  |
| Brc1ccc(C[P+]2(c3ccccc3)CCCCC2)cc1 |  | > 100 | > 100 | > 100 | > 100 | > 100 | > 100 | > 100 | > 100 | > 100 |  |  |
| COC(=O)/C=C(C)/C=C/C1OC(C)OCC1O (stereo unspecified) | > 100 | > 100 | > 100 | > 100 | > 100 | > 100 | > 100 | > 100 | > 100 | > 100 | > 100 |  |
| COC(=O)c1ccc(/C=C2\Oc3ccccc3C2=O)cc1 | > 100 | > 100 | > 100 | > 100 | > 100 | > 100 | > 100 |  |  |  |  | > 100 |
| NC(=S)/N=C(/c1nc2ccc(Cl)cc2[nH]c1=O)C(O)c1ccccc1Cl (stereo unspecified) |  | > 100 | > 100 | > 100 | > 100 |  | > 100 | > 100 | > 100 | > 100 | > 100 |  |
| O=C(/C=C/c1ccccc1)CSc1ncn[nH]1 | > 100 | > 100 | > 100 | > 100 | > 100 | > 100 | > 100 |  | > 100 |  |  | > 100 |
